The text below walks through data of patent US11279733B2, “Peptide antibiotics” (priority 2017, dated 2022).

For one data set, the system named is A. baumannii ATCC 19606. The note with it: ATCC 19606. In a few lines:
(§1)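 Mid-log cultures grown in Mueller Hinton broth at 37° C were tested by 2-fold broth microdilution at 5×10^5 CFU/mL final. Compounds were dissolved in water and tested over a final range of 32 to 0.015 μg/mL.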

The next data set deals with A. baumannii GN_093 PmxR. Conditions: GN 093 PmxR. An outline of the steps:
as §1

A further data set relates to E. coli ATCC 25922. The note with it: ATCC 25922. In a few lines:
as §1

The next data set relates to K. pneumoniae ATCC 13883. Conditions: ATCC 13883. In a few lines:
as §1

Data set [1] deals with K. pneumoniae ATCC 700603, MDR. Conditions: ATCC 700603. An outline of the steps: as §1
Data set [2] has as its system K. pneumoniae ATCC BAA-2146, NDM-1 pos. Conditions: ATCC BAA-2146. In a few lines: as §1
In data set [3] the test system is K. pneumoniae GN_102 PmxR. The note with it: GN 102 PmxR. An outline of the steps: as §1
Data set [4] has as its system K. pneumoniae GN_106, PmxR. The note with it: GN 106, PmxR. An outline of the steps: as §1
The test system of a further data set is P. aeruginosa ATCC 27853. Conditions: ATCC 27853. An outline of the steps:
as §1

Data set [5] relates to P. aeruginosa GN_043, PmxR. An outline of the steps: as §1
Data set [6] deals with P. aeruginosa GN_105, PmxR. The note with it: GN 105, PmxR. An outline of the steps:
as §1

The subject of data set [7] is S. aureus ATCC 25923, MSSA. The note with it: ATCC 25923. An outline of the steps:
as §1

The nature of data set [8]: in vitro. The note with it: human. In a few lines:
(§2)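 Fluorescence read-out (excitation 560, emission 590) after a 2 h, 37 °C incubation with 5 μM resazurin, following 24 h compound treatment of cells plated at 4000 per well. CC50 values come from fitting dose–response curves of growth inhibition.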

A short description of data set [9]: in vitro. Conditions: human. An outline of the steps: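 HK2 cells were seeded at 2000 per well in DMEM/F12 with 10% FBS and left to attach for 24 h at 37 °C, 5% CO2. They were then exposed for 24 h to 3-fold peptide dilutions starting from 600 μM solutions in quadruplicate. LDH release was read at 450 nm, and CC50 was fitted from dose-response curves.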
The source holds these as a separate data set.

The nature of data set [10]: in vitro. Conditions: human. In a few lines:
as §2
The source holds these as a separate data set.

Converted amounts (≈) assume the structure as drawn. Positions of bridges follow the written chain, without caps; N, C: chain ends. Non-standard residues stand in square brackets, D forms with d. Residues, ends and D or L forms follow the SMILES beside them. *: point of attachment. Decanoyl(3R-OH) = CCCCCCC[C@@H](O)CC(=O)*; Phe(4-NH2) = Nc1ccc(C[C@H](N)C(=O)O)cc1; dDab = NCC[C@@H](N)C(=O)O; Dab = NCC[C@H](N)C(=O)O

Take `CCCCCCC[C@@H](O)CC(=O)N[C@@H](CCN)C(=O)N[C@@H]1CCNC(=O)[C@H](CC(C)C)NC(=O)[C@H](CCN)NC(=O)[C@H](CCN)NC(=O)[C@H](CC(C)C)NC(=O)[C@@H](Cc2ccccc2)NC(=O)[C@H](CCN)NC1=O` [compound 6658, 3(R)OH-nC9CO-L-Dab-cyc[D-Dab-L-Dab-D-Phe-L-Leu-L-Dab-L-Dab-L-Leu]] ({Decanoyl(3R-OH)}-[Dab][dDab][Dab][dF]L[Dab][Dab]L; lactam 2-C): the “MIC A. baumannii ATCC 19606” value against A. baumannii ATCC 19606 is over 32 µg/mL. Further, in the data set on A. baumannii GN_093 PmxR, the “MIC A. baumannii GN_093 PmxR” value is over 32 µg/mL. Also, the “MIC E. coli ATCC 25922” value against E. coli ATCC 25922 is over 32 µg/mL. Further, the “MIC K. pneumoniae ATCC 13883” value in the data set on K. pneumoniae ATCC 13883 was over 32 µg/mL. For the same compound, the “MIC K. pneumoniae ATCC 700603, MDR” value in data set [1] is over 32 µg/mL. In addition, the “MIC K. pneumoniae ATCC BAA-2146, NDM-1 pos” value in [2] is over 32 µg/mL. In [3], the “MIC K. pneumoniae GN_102 PmxR” value was over 32 µg/mL. Further, the “MIC K. pneumoniae GN_106, PmxR” value in data set [4] is over 32 µg/mL. Further, the “MIC P. aeruginosa ATCC 27853” value against P. aeruginosa ATCC 27853 came out at 32 µg/mL (≈ 30.6 µM). Besides, the “MIC P. aeruginosa GN_043, PmxR” value in [5] was over 32 µg/mL. In data set [6], the “MIC P. aeruginosa GN_105, PmxR” value was over 32 µg/mL. For the same compound, the “MIC S. aureus ATCC 25923, MSSA” value in [7] was over 32 µg/mL. In addition, the CC50 at 24 h in the data set “in vitro [8]”, in the data set “in vitro [9]” and in “in vitro [10]” was over 300 µM throughout.

Take `CCCCCCC[C@@H](O)CC(=O)N[C@@H](CCN)C(=O)N[C@@H]1CCNC(=O)[C@H](CC(C)C)NC(=O)[C@H](CCN)NC(=O)[C@H](CCN)NC(=O)[C@H](C)NC(=O)[C@@H](Cc2ccccc2)NC(=O)[C@H](CCN)NC1=O` [compound 6660, 3(R)OH-nC9CO-L-Dab-cyc[D-Dab-L-Dab-D-Phe-L-Ala-L-Dab-L-Dab-L-Leu]] ({Decanoyl(3R-OH)}-[Dab][dDab][Dab][dF]A[Dab][Dab]L; lactam 2-C): in the data set with A. baumannii ATCC 19606, the “MIC A. baumannii ATCC 19606” value was over 32 µg/mL. The “MIC A. baumannii GN_093 PmxR” value in the data set on A. baumannii GN_093 PmxR is over 32 µg/mL. Moreover, in the data set with E. coli ATCC 25922, the “MIC E. coli ATCC 25922” value was over 32 µg/mL. The “MIC K. pneumoniae ATCC 13883” value against K. pneumoniae ATCC 13883 is over 32 µg/mL. The “MIC K. pneumoniae ATCC 700603, MDR” value in data set [1] was over 32 µg/mL. Moreover, the “MIC K. pneumoniae ATCC BAA-2146, NDM-1 pos” value in data set [2] was over 32 µg/mL. Besides, the “MIC K. pneumoniae GN_102 PmxR” value in data set [3] is over 32 µg/mL. The “MIC K. pneumoniae GN_106, PmxR” value in data set [4] is over 32 µg/mL. Also, the “MIC P. aeruginosa ATCC 27853” value against P. aeruginosa ATCC 27853 is over 32 µg/mL. For the same compound, in data set [5], the “MIC P. aeruginosa GN_043, PmxR” value is over 32 µg/mL. The “MIC P. aeruginosa GN_105, PmxR” value in data set [6] was over 32 µg/mL. Also, in data set [7], the “MIC S. aureus ATCC 25923, MSSA” value was over 32 µg/mL. Moreover, the CC50 at 24 h in the data set “in vitro [8]”, in “in vitro [9]” and in “in vitro [10]” was over 300 µM in each case.

As for `CCCCCCC[C@@H](O)CC(=O)N[C@H](CCN)C(=O)N[C@H]1CCNC(=O)[C@H](CC(C)C)NC(=O)[C@H](CCN)NC(=O)[C@H](CCN)NC(=O)[C@H](CC(C)C)NC(=O)[C@@H](Cc2ccccc2)NC(=O)[C@H](Cc2ccc(N)cc2)NC1=O` [compound 8635, 3(R)OH-nC9CO-D-Dab-cyc[L-Dab-L-4NH2Phe-D-Phe-L-Leu-L-Dab-L-Dab-L-Leu]] ({Decanoyl(3R-OH)}-[dDab][Dab][Phe(4-NH2)][dF]L[Dab][Dab]L; lactam 2-C), the “MIC, A. baumannii ATCC 19606” value in the data set on A. baumannii ATCC 19606 was over 32 µg/mL. In addition, the “MIC, A. baumannii Cl Ptyela 10073 4512:2, PmxR” value against A. baumannii GN_093 PmxR is over 32 µg/mL. The “MIC, E. coli ATCC 25922” value with E. coli ATCC 25922 worked out at 16 µg/mL (≈ 14.5 µM). Moreover, in the data set with K. pneumoniae ATCC 13883, the “MIC, K. pneumoniae ATCC 13883” value is over 32 µg/mL. In addition, the “MIC, K. pneumoniae ATCC 700603, MDR” value in data set [1] came out at 32 µg/mL (≈ 28.9 µM). The “MIC, K. pneumoniae ATCC BAA-2146, NDM-1 pos” value in data set [2] worked out at 16 µg/mL (≈ 14.5 µM). Moreover, in data set [3], the “MIC, K. pneumoniae Cl Koprana 10065 0661:1, PmxR” value was over 32 µg/mL. For the same compound, in [4], the “MIC, K. pneumoniae Cl 138-16347-20362, PmxR” value is over 32 µg/mL. For the same compound, the “MIC, P. aeruginosa ATCC 27853” value against P. aeruginosa ATCC 27853 was found to be 16 µg/mL (≈ 14.5 µM). The “MIC, P. aeruginosa FADDI-PA070, PmxR” value in data set [5] (Table 5, polymyxin-resistant) amounted to 16 µg/mL (≈ 14.5 µM). Further, in [6], the “MIC, P. aeruginosa PA9704, PmxR” value is over 32 µg/mL. Moreover, in [7], the “MIC, S. Aureus ATCC 25923, MSSA” value turned out to be 32 µg/mL (≈ 28.9 µM). Further, the CC50 at 24 h is over 300 µM in the data set “in vitro [8]”, 219 µM in “in vitro [9]” and over 300 µM in the data set “in vitro [10]”.
